Laboratory results reported in patent US8283465B2, “Triazolopyridine compound, and action thereof as prolyl hydroxylase inhibitor or erythropoietin production-inducing agent” (Japan Tobacco Inc., priority 2009, dated 2012).
Where a name gives a salt, the structure may show the parent alone. Read-outs that look alike come from different tables or passages of the source.

Key:
human PHD2 = target: T1, human PHD2 (Homo sapiens, UniProt Q9GZT9); experiment: Measurement of human PHD inhibitory activity (TR-FRET, hydroxylation of HIF-1α partial peptide); type: biochemical; settings: human PHD2 enzyme 1 nM, 25° C. 30 min, values consisting solely of numbers
T1 construct: made in house; host or cells: Sf9 insect cells (baculovirus, pVL1393 vector)
T1 sequence (Q9GZT9 whole entry): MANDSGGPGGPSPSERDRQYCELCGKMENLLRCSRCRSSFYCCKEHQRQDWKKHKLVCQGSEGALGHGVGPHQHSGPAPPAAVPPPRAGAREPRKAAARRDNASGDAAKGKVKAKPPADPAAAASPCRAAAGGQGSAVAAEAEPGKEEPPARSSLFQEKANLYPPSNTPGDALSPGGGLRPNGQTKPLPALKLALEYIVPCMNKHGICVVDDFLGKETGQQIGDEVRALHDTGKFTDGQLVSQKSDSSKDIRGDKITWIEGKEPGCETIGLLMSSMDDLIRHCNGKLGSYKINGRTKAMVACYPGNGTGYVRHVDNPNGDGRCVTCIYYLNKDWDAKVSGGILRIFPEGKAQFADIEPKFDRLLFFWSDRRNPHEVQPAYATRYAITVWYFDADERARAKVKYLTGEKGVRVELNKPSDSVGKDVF
Method: Human PHD2 was expressed in insect cell (Sf9 cell). […] The vector and baculovirus were cotransfected into Sf9, and human PHD2 expression baculovirus was isolated in Sf9. By using the virus, human PHD2-expressed cell was prepared. […] The cell lysate was flowed into a column filled with ANTI-FLAG M2 Affinity Gel Freezer Safe (SIGMA), washed, and the N-terminal FLAG-tag-added human PHD2 was eluted and collected.
VBC complex (VHL/Elongin B/Elongin C) was expressed in Escherichia coli (BL21(DE3)). […] After these expression vectors were transfected into Escherichia coli (BL21(DE3)), Escherichia coli was cultured at 37° C. in the medium containing IPTG. The collected Escherichia coli was disrupted by sonication and flowed into a column filled with Ni-NTA superflow (QIAGEN), washed, and the product was eluted and collected. The eluate was flowed into a column filled with Glutathione Sepharose 4B, washed, and the product was eluted and collected. […]
As for human PHD2 enzyme activity, hydroxylation of proline residue contained in the 19 residues of the partial peptide based on the sequence of HIF-1α as a substrate was measured by TR-FRET (Time-Resolved Fluorescence Resonance Energy Transfer) method.
A test compound and a substrate solution were added to a 96-well plate. The reaction was started by addition of a human PHD2 enzyme solution (final concentration 1 nM) to the reaction system. After incubation at 25° C. for 30 min, a stop solution containing EDTA was added, and a VBC complex solution containing europium (Eu) and Xlent was added, and the amount of hydroxylated proline residue was quantified by time-resolved fluorescence spectroscopy. The time-resolved fluorescence in each well was measured, and the human PHD inhibitory activity (%) of the test compound was calculated based on the values of enzyme non-addition well and test compound non-addition well.

[1] = system: human EPO production, Hep3B cells; experiment: Human EPO production activity in Hep3B cells (EPO-ELISA of culture supernatant); type: cell-based; settings: for EC50: 24 hr incubation, values consisting solely of numbers, read-out: EC50 (μM) in vitro, human EPO production activity; for production activity (%) at 30 μM in vitro, human EPO: 24 hr, values containing %, relative to maximum production
Method: The activity of the test compound on human EPO production was measured using Hep3B (AMC) established from human liver-derived cell line.
Hep3B cells were cultured in Eagle-MEM medium containing 10% fetal bovine serum, and the test compound was diluted with dimethyl sulfoxide (DMSO).
Hep3B cells were cultured in a 96-well plate, and a test compound was added at each concentration 24 hr later. After incubation at 37° C. for 24 hr, the culture supernatant was collected. The concentration of human EPO produced in the culture supernatant was measured using a human EPO-ELISA kit (manufactured by StemCell Technologies, 01630) according to the manufacturer's explanation, and the human EPO production activity (%) of the test compound was calculated based on the maximum value of production under the above conditions and the value without addition of the test compound. […] In these Tables, the values consisting solely of numbers show EC50 (μM) and those containing % show human EPO production activity (%) at […].

[2] = read-out: IC50 (μM) in vitro, human PHD inhibitory activity

IC50 (human PHD2; [2]) | Structure (SMILES) | EC50 ([1]; Homo sapiens, Hep3B, 24 h) | further results
0.42 µM | O=C(O)CNC(=O)c1c(O)cc(-c2ccc(F)c(C(F)(F)F)c2)n2ncnc12 [Example 1, {[5-(4-fluoro-3-trifluoromethylphenyl)-7-hydroxy[1,2,4]triazolo[1,5-a]pyridine-8-carbonyl]amino}acetic acid hydrochloride] |  | EC50 ([1]; Homo sapiens): 9.9 µM
 | O=C(O)CNC(=O)c1c(O)cc(CCc2ccccc2)n2ncnc12 [Example 2, [(7-hydroxy-5-phenethyl[1,2,4]triazolo[1,5-a]pyridine-8-carbonyl)amino]acetic acid hydrochloride] | 10.9 µM | IC50 (human PHD2; IC50 (μM) in vitro, human PHD inhibitory activity): 0.22 µM
 | CCCCc1cc(O)c(C(=O)NCC(=O)O)c2ncnn12 [Example 3, [(5-butyl-7-hydroxy[1,2,4]triazolo[1,5-a]pyridine-8-carbonyl)amino]acetic acid hydrochloride] | 12.4 µM | 
 | CCc1c(O)c(C(=O)NCC(=O)O)c2ncnn2c1CC.Cl [Example 4, [(5,6-diethyl-7-hydroxy[1,2,4]triazolo[1,5-a]pyridine-8-carbonyl)amino]acetic acid hydrochloride] |  | production activity (%) at 30 μM in vitro, human EPO [1]: 38%
1.17 µM | O=C(O)CNC(=O)c1c(O)c(CCc2ccccc2)cn2ncnc12 [Example 5, [(7-hydroxy-6-phenethyl[1,2,4]triazolo[1,5-a]pyridine-8-carbonyl)amino]acetic acid hydrochloride] |  | EC50 ([1]; Homo sapiens): 11.5 µM
0.87 µM | CCCCc1c(Cl)c(O)c(C(=O)NCC(=O)O)c2ncnn12 [Example 6, [(5-butyl-6-chloro-7-hydroxy[1,2,4]triazolo[1,5-a]pyridine-8-carbonyl)amino]acetic acid hydrochloride] |  | EC50 ([1]; Homo sapiens): 20.8 µM
 | Cc1nc2c(C(=O)NCC(=O)O)c(O)cc(CCc3ccccc3)n2n1 [Example 7, [(7-hydroxy-2-methyl-5-phenethyl[1,2,4]triazolo[1,5-a]pyridine-8-carbonyl)amino]acetic acid hydrochloride] | 18.4 µM | 
0.49 µM | CC(C)(C)CCc1cc(O)c(C(=O)NCC(=O)O)n2ncnc12 [Example 8, {[8-(3,3-dimethyl-butyl)-6-hydroxy[1,2,4]triazolo[1,5-a]pyridine-5-carbonyl]amino}acetic acid hydrochloride] |  | EC50 ([1]; Homo sapiens): 13.4 µM
1.57 µM | O=C(O)CNC(=O)c1c(O)c(-c2ccccc2)cn2cnnc12 [Example 9, [(7-hydroxy-6-phenyl[1,2,4]triazolo[4,3-a]pyridine-8-carbonyl)amino]acetic acid] |  | production activity (%) at 30 μM in vitro, human EPO [1]: 1%
 | O=C(O)CNC(=O)c1c(O)ccn2cnnc12 [Example 10, [(7-hydroxy[1,2,4]triazolo[4,3-a]pyridine-8-carbonyl)amino]acetic acid hydrochloride] |  | production activity (%) at 30 μM in vitro, human EPO [1]: 0%
0.29 µM | O=C(O)CNC(=O)c1c(O)ccc2cnnn12 [Example 11, [(6-hydroxy[1,2,3]triazolo[1,5-a]pyridine-7-carbonyl)amino]acetic acid] |  | production activity (%) at 30 μM in vitro, human EPO [1]: 1%
 | O=C(O)CNC(=O)c1c(O)ccn2ncnc12 [Example 12, [(7-hydroxy[1,2,4]triazolo[1,5-a]pyridine-8-carbonyl)amino]acetic acid hydrochloride] |  | production activity (%) at 30 μM in vitro, human EPO [1]: 5%
1.31 µM | O=C(O)CNC(=O)c1c(O)ccn2nc(-c3ccccc3)nc12 [Example 13, [(7-hydroxy-2-phenyl[1,2,4]triazolo[1,5-a]pyridine-8-carbonyl)amino]acetic acid hydrochloride] |  | production activity (%) at 30 μM in vitro, human EPO [1]: 1%
 | O=C(O)CNC(=O)c1c(O)cc(CCc2ccc(F)cc2)n2ncnc12 [Example 17, ({5-[2-(4-fluorophenyl)ethyl]-7-hydroxy[1,2,4]triazolo[1,5-a]pyridine-8-carbonyl}amino)acetic acid hydrochloride] | 8.8 µM | 
 | O=C(O)CNC(=O)c1c(O)cc(-c2ccccc2)n2ncnc12 [Example 22, [(7-hydroxy-5-phenyl[1,2,4]triazolo[1,5-a]pyridine-8-carbonyl)amino]acetic acid hydrochloride] | 13.7 µM | 
 | O=C(O)CNC(=O)c1c(O)cc(C2CCCCC2)n2ncnc12 [Example 27, [(5-cyclohexyl-7-hydroxy[1,2,4]triazolo[1,5-a]pyridine-8-carbonyl)amino]acetic acid hydrochloride] | 7.7 µM | 
 | O=C(O)CNC(=O)c1c(O)cc(-c2cccc(Cl)c2)n2ncnc12 [Example 44, {[5-(3-chlorophenyl)-7-hydroxy[1,2,4]triazolo[1,5-a]pyridine-8-carbonyl]amino}acetic acid] | 10.4 µM | 
 | CCCc1cc(O)c(C(=O)NCC(=O)O)c2ncnn12 [Example 65, [(7-hydroxy-5-propyl[1,2,4]triazolo[1,5-a]pyridine-8-carbonyl)amino] acetic acid hydrochloride] |  | production activity (%) at 30 μM in vitro, human EPO [1]: 49%
 | CCCCCc1cn2ncnc2c(C(=O)NCC(=O)O)c1O [Example 71, [(7-hydroxy-6-pentyl[1,2,4]triazolo[1,5-a]pyridine-8-carbonyl)amino] acetic acid hydrochloride] | 15.8 µM | 
 | CCCCCc1cc(O)c(C(=O)NCC(=O)O)c2ncnn12 [Example 74, [(7-hydroxy-5-pentyl[1,2,4]triazolo[1,5-a]pyridine-8-carbonyl)amino] acetic acid hydrochloride] | 8.3 µM | 
 | O=C(O)CNC(=O)c1c(O)cc(-c2ccccc2)c2ncnn12 [Example 83, [(6-hydroxy-8-phenyl[1,2,4]triazolo[1,5-a]pyridine-5-carbonyl)amino] acetic acid hydrochloride] | 20.7 µM | 
 | O=C(O)CNC(=O)c1c(O)cc(-c2cccc(Cl)c2)c2ncnn12 [Example 84, {[8-(3-chlorophenyl)-6-hydroxy[1,2,4]triazolo[1,5-a]pyridine-5-carbonyl]amino} acetic acid] | 11 µM | 
 | O=C(O)CNC(=O)c1c(O)cc(CCc2ccccc2)c2ncnn12 [Example 87, [(6-hydroxy-8 phenethyl[1,2,4]triazolo[1,5-a]pyridine-5-carbonyl)amino] acetic acid hydrochloride] | 18.5 µM | 
 | O=C(O)CNC(=O)c1c(O)cc(C2CCCCC2)c2ncnn12 [Example 92, [(8-cyclohexyl-6-hydroxy[1,2,4]triazolo[1,5-a]pyridine-8-carbonyl]amino] acetic acid hydrochloride] | 18.5 µM | 
 | Cl.O=C(O)CNC(=O)c1c(O)ccc2ncnn12 [Example 107, [(6-hydroxy[1,2,4]triazolo[1,5-a]pyridine-5-carbonyl]amino} acetic acid hydrochloride] |  | production activity (%) at 30 μM in vitro, human EPO [1]: 4%
 | CCCCc1cc(O)c(C(=O)NCC(=O)O)c2ncnn12 [Example 117, [(5-butyl-7-hydroxy[1,2,4]triazolo[1,5-a]pyridine-8-carbonyl)amino] acetic acid] |  | EC50 [1]: 7.7 µM
0.64 µM | O=C(O)CNC(=O)c1c(O)cc(-c2cc(F)cc(C(F)(F)F)c2)n2ncnc12 [Example 118, {[5-(3-fluoro-5-trifluoromethyl phenyl)-7-hydroxy[1,2,4]triazolo[1,5-a]pyridine-8-carbonyl]amino} acetic acid] |  | 
0.33 µM | O=C(O)CNC(=O)c1c(O)cc(-c2ccc(F)c(C(F)(F)F)c2)n2ncnc12 [Example 121, {[5-(4-fluoro-3-trifluoromethyl phenyl)-7-hydroxy[1,2,4]triazolo[1,5-a]pyridine-8-carbonyl]amino} acetic acid] |  | 
0.96 µM | O=C(O)CNC(=O)c1c(O)cc(-c2cc(F)cc(C3CC3)c2)n2ncnc12 [Example 122, {[5-(3-cyclopropyl-5-fluorophenyl)-7-hydroxy[1,2,4]triazolo[1,5-a]pyridine-8-carbonyl]amino} acetic acid] |  | 
